According to patent US20250346564A1 (ARase Therapeutics Inc., priority 2022, published 2025):

Target: PARG (Homo sapiens (Human), UniProt Q86W56)
Experiment: PARG TFMU assay (4-(trifluoromethyl)umbelliferone substrate)
Type: biochemical
Details: PARG 250 pM or 2 nM, 10-point dose response
Protocol: Example C. Inhibition of PARG TEMU Assay
The ability of the compounds of the Examples to inhibit PARG activity in 4. (trifluoromethyl)umbelliferone (TFMU) assay was determined as described below. PARG inhibitors were added into 384 well plate for a 10-point dose response curve at 1:3 dilutions. TFMU PARG substrate and PARG (250 pM or 2 nM) were then added to the plate to initiate enzymatic reaction. After incubation with the reagent, […] was read. IC50 values were calculated using set control points for 100% inhibition as no enzyme and 0% inhibition 250 pM or 2 nM of PARG enzyme.

Chain of PARG (Q86W56 whole entry): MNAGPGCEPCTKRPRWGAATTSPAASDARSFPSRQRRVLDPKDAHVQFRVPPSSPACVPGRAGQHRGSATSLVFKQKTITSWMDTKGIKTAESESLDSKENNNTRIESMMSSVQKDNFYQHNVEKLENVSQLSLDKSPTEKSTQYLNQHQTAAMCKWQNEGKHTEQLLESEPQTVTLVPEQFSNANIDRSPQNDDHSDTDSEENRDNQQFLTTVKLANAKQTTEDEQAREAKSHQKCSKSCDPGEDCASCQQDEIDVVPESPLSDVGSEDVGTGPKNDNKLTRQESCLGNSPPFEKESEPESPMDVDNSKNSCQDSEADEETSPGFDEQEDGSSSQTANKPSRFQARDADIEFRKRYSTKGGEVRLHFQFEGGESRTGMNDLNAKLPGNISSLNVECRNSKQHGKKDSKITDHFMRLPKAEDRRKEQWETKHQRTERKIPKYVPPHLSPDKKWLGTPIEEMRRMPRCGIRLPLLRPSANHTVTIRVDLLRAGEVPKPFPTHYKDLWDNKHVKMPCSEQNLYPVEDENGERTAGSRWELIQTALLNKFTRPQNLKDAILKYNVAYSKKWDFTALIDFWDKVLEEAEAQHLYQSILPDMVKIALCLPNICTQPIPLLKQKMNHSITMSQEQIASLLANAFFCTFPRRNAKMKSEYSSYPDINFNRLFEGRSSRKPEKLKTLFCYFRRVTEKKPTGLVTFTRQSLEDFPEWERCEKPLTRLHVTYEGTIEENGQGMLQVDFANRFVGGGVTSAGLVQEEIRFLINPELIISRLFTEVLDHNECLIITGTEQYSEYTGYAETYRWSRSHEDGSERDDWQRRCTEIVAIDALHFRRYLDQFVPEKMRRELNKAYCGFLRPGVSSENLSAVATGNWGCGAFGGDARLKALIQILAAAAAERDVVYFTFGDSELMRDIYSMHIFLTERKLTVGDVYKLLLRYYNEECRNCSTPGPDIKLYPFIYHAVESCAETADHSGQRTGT

| Structure (SMILES) | IC50 [nM] |
| --- | --- |
| CC(C)C(=O)N1CCN(c2cc(S(=O)(=O)NC3(CF)COC3)cc3c2cnn3-c2nnc(C3CC3)s2)CC1 [Example 43, 1-(5-cyclopropyl-1,3,4-thiadiazol-2-yl)-N-(3-(fluoromethyl)oxetan-3-yl)-4-(4-isobutyrylpiperazin-1-yl)-1H-indazole-6-sulfonamide] | < 50 |
| CC(C)C(=O)N1CCN(c2cc(S(=O)(=O)NC3COC3)cc3c2cnn3-c2nnc(C(F)F)s2)CC1 [Example 29, 1-(5-(difluoromethyl)-1,3,4-thiadiazol-2-yl)-4-(4-isobutyrylpiperazin-1-yl)-N-(oxetan-3-yl)-1H-indazole-6-sulfonamide] | 50 to 500 |
| CC(C)C(=O)N1CCN(c2cc(S(=O)(=O)NC3(C)COC3)cc3c2cnn3-c2nnc(CS(C)(=O)=O)s2)CC1 [Example 31, 4-(4-isobutyrylpiperazin-1-yl)-N-(3-methyloxetan-3-yl)-1-(5-((methylsulfonyl)methyl)-1,3,4-thiadiazol-2-yl)-1H-indazole-6-sulfonamide] | < 50 |
| CC(C)C(=O)N1CCN(c2cc(S(=O)(=O)NC3(C)COC3)cc3c2cnn3-c2nnc(Br)s2)CC1 [Example 81, 1-(5-bromo-1,3,4-thiadiazol-2-yl)-4-(4-isobutyrylpiperazin-1-yl)-N-(3-methyloxetan-3-yl)-1H-indazole-6-sulfonamide] | < 50 |
| CC(C)C(=O)N1CCN(c2cc(S(=O)(=O)NC3(C)COC3)cc3c2cnn3-c2nncs2)CC1 [Example 46, 4-(4-isobutyrylpiperazin-1-yl)-N-(3-methyloxetan-3-yl)-1-(1,3,4-thiadiazol-2-yl)-1H-indazole-6-sulfonamide] | < 50 |
| Cc1ncc(Cn2c(=O)[nH]c3ccc(S(=O)(=O)NC4(CF)COC4)cc3c2=O)s1 [Example 28A, N-(3-(fluoromethyl)oxetan-3-yl)-3-((2-methylthiazol-5-yl)methyl)-2,4-dioxo-1,2,3,4-tetrahydroquinazoline-6-sulfonamide] | 50 to 500 |
| C=Cc1nnc(-n2ncc3c(N4CCN(C(=O)C(C)C)CC4)cc(S(=O)(=O)NC4(C)COC4)cc32)s1 [Example 80, 4-(4-isobutyrylpiperazin-1-yl)-N-(3-methyloxetan-3-yl)-1-(5-vinyl-1,3,4-thiadiazol-2-yl)-1H-indazole-6-sulfonamide] | < 50 |
| CCn1c(=O)c2cc(S(=O)(=O)NC3(C)CNC3)ccc2n(CC)c1=O [Example 49, 1,3-diethyl-N-(3-methylazetidin-3-yl)-2,4-dioxo-1,2,3,4-tetrahydroquinazoline-6-sulfonamide] | 500 to 5000 |
| C=C[C@@H]1C[C@@]1(C#N)NS(=O)(=O)c1ccc2c(c1)c(=O)n(CC)c(=O)n2CC (single isomer, unassigned) [Example 52] | ≥ 5000 |
| Cc1nnc(-n2ncc3c(N4CCN(C(=O)C(C)C)CC4)cc(S(=O)(=O)NC4(C)COC4)cc32)s1 [Example 45, 4-(4-isobutyrylpiperazin-1-yl)-1-(5-methyl-1,3,4-thiadiazol-2-yl)-N-(3-methyloxetan-3-yl)-1H-indazole-6-sulfonamide] | < 50 |
| Cc1nnc(-n2ncc3c(N4CCN(C(=O)C(C)C)CC4)cc(S(=O)(=O)NC4(CF)COC4)cc32)s1 [Example 42, N-(3-(fluoromethyl)oxetan-3-yl)-4-(4-isobutyrylpiperazin-1-yl)-1-(5-methyl-1,3,4-thiadiazol-2-yl)-1H-indazole-6-sulfonamide] | < 50 |
| C=Cc1nnc(-n2ncc3c(N4CCN(C(=O)C(C)C)CC4)cc(S(=O)(=O)NC4(CF)COC4)cc32)s1 [Example 47, N-(3-(fluoromethyl)oxetan-3-yl)-4-(4-isobutyrylpiperazin-1-yl)-1-(5-vinyl-1,3,4-thiadiazol-2-yl)-1H-indazole-6-sulfonamide] | < 50 |
| CCn1c(=O)c2cc(S(=O)(=O)N[C@@]3(C#N)C[C@@H]3CO)ccc2n(CC)c1=O (single isomer, unassigned) [Example 78] | ≥ 5000 |
| Cc1ncc(Cn2c(=O)c3cc(S(=O)(=O)NC4(C#N)COC4)ccc3n(Cc3sc(C)nc3C)c2=O)s1 [Example 25B, N-(3-cyanooxetan-3-yl)-1-((2,4-dimethylthiazol-5-yl)methyl)-3-((2-methylthiazol-5-yl)methyl)-2,4-dioxo-1,2,3,4-tetrahydroquinazoline-6-sulfonamide] | 50 to 500 |

More lines, now with the values ahead:

| IC50 [nM] | Structure (SMILES) |
| --- | --- |
| 500 to 5000 | N#CC1(NS(=O)(=O)c2cc(Cl)c3cnn(-c4nnc(C(F)F)s4)c3c2)COC1 [Example 63, 4-chloro-N-(3-cyanooxetan-3-yl)-1-(5-(difluoromethyl)-1,3,4-thiadiazol-2-yl)-1H-indazole-6-sulfonamide] |
| < 50 | CC1(NS(=O)(=O)c2cc(N3CCN(C(=O)C4CCCC4)CC3)c3cnn(-c4nnc(C(F)F)s4)c3c2)COC1 [Example 76, 4-(4-(cyclopentanecarbonyl)piperazin-1-yl)-1-(5-(difluoromethyl)-1,3,4-thiadiazol-2-yl)-N-(3-methyloxetan-3-yl)-1H-indazole-6-sulfonamide] |
| 50 to 500 | CN1CCN(c2cc(S(=O)(=O)NC3(C)COC3)cc3c2cnn3-c2nnc(C(F)F)s2)CC1 [Example 48, 1-(5-(difluoromethyl)-1,3,4-thiadiazol-2-yl)-N-(3-methyloxetan-3-yl)-4-(4-methylpiperazin-1-yl)-1H-indazole-6-sulfonamide] |
| 50 to 500 | CC(C)C(=O)N1CCN(c2cc(S(=O)(=O)NC3(C)CCC3)cc3c2cnn3-c2nnc(C(F)F)s2)CC1 [Example 21, 1-(5-(difluoromethyl)-1,3,4-thiadiazol-2-yl)-4-(4-isobutyrylpiperazin-1-yl)-N-(1-methylcyclobutyl)-1H-indazole-6-sulfonamide] |
| < 50 | CN(CC(F)F)C(=O)N1CCN(c2cc(S(=O)(=O)NC3(C)COC3)cc3c2cnn3-c2nnc(C(F)F)s2)CC1 [Example 37, N-(2,2-difluoroethyl)-4-(1-(5-(difluoromethyl)-1,3,4-thiadiazol-2-yl)-6-(N-(3-methyloxetan-3-yl)sulfamoyl)-1H-indazol-4-yl)-N-methylpiperazine-1-carboxamide] |
| < 50 | CN(CC(F)F)C(=O)N1CCN(c2cc(S(=O)(=O)NC3(CF)COC3)cc3c2cnn3-c2nnc(C(F)F)s2)CC1 [Example 77, N-(2,2-difluoroethyl)-4-(1-(5-(difluoromethyl)-1,3,4-thiadiazol-2-yl)-6-(N-(3-(fluoromethyl)oxetan-3-yl)sulfamoyl)-1H-indazol-4-yl)-N-methylpiperazine-1-carboxamide] |
| < 50 | N#CC1(NS(=O)(=O)c2cc(N3CCN(C(=O)C4CC4)CC3)c3cnn(-c4nnc(C(F)F)s4)c3c2)COC1 [Example 39, N-(3-cyanooxetan-3-yl)-4-(4-(cyclopropanecarbonyl)piperazin-1-yl)-1-(5-(difluoromethyl)-1,3,4-thiadiazol-2-yl)-1H-indazole-6-sulfonamide] |
| 50 to 500 | CC1(NS(=O)(=O)c2ccc3cnn(-c4nnc(C(F)F)s4)c3c2)COC1 [Example 23, 1-(5-(difluoromethyl)-1,3,4-thiadiazol-2-yl)-N-(3-methyloxetan-3-yl)-1H-indazole-6-sulfonamide] |
| < 50 | N#CC1(NS(=O)(=O)c2cc(N3CCN(C(=O)C4CCCC4)CC3)c3cnn(-c4nnc(C(F)F)s4)c3c2)COC1 [Example 40, N-(3-cyanooxetan-3-yl)-4-(4-(cyclopentanecarbonyl)piperazin-1-yl)-1-(5-(difluoromethyl)-1,3,4-thiadiazol-2-yl)-1H-indazole-6-sulfonamide] |
| < 50 | CC(C)C(=O)N1CCN(c2cc([S@TB20](=O)(=O)NC3(CF)COC3)cc3c2cnn3-c2nnc(C(F)F)s2)CC1 [Example 22, 1-(5-(difluoromethyl)-1,3,4-thiadiazol-2-yl)-N-(3-(fluoromethyl)oxetan-3-yl)-4-(4-isobutyrylpiperazin-1-yl)-1H-indazole-6-sulfonamide] |
| 50 to 500 | COc1cc(S(=O)(=O)NC2(C)COC2)cc2c1cnn2-c1nnc(C(F)F)s1 [Example 73, 1-(5-(difluoromethyl)-1,3,4-thiadiazol-2-yl)-4-methoxy-N-(3-methyloxetan-3-yl)-1H-indazole-6-sulfonamide] |
| < 50 | O=C(C1CCCC1)N1CCN(c2cc(S(=O)(=O)NC3(CF)COC3)cc3c2cnn3-c2nnc(C(F)F)s2)CC1 [Example 34, 4-(4-(cyclopentanecarbonyl)piperazin-1-yl)-1-(5-(difluoromethyl)-1,3,4-thiadiazol-2-yl)-N-(3-(fluoromethyl)oxetan-3-yl)-1H-indazole-6-sulfonamide] |
| 50 to 500 | CN(C)c1cc(S(=O)(=O)NC2(C)COC2)cc2c1cnn2-c1nnc(C(F)F)s1 [Example 26, 1-(5-(difluoromethyl)-1,3,4-thiadiazol-2-yl)-4-(dimethylamino)-N-(3-methyloxetan-3-yl)-1H-indazole-6-sulfonamide] |
| 50 to 500 | CC1(NS(=O)(=O)c2cc(Cl)c3cnn(-c4nnc(C(F)F)s4)c3c2)COC1 [Example 24] |
| < 50 | CC(C)C(=O)N1CCN(c2cc(S(=O)(=O)NC3(C#N)COC3)cc3c2cnn3-c2nnc(C(F)F)s2)CC1 [Example 30, N-(3-cyanooxetan-3-yl)-1-(5-(difluoromethyl)-1,3,4-thiadiazol-2-yl)-4-(4-isobutyrylpiperazin-1-yl)-1H-indazole-6-sulfonamide] |
| < 50 | CC(C)C(=O)N1CCN(c2cc(S(=O)(=O)NC3(C)COC3)cc3c2cnn3-c2nnc(C(F)F)s2)C[C@@H]1C (single isomer, unassigned) [Example 79] |
| 50 to 500 | CC(C)C(=O)N1CCN(c2cc(S(=O)(=O)NC3(C#N)COC3C)cc3c2cnn3-c2nnc(C(F)F)s2)CC1 (stereo not shown) [Example 32, N-(3-cyano-2-methyloxetan-3-yl)-1-(5-(difluoromethyl)-1,3,4-thiadiazol-2-yl)-4-(4-isobutyrylpiperazin-1-yl)-1H-indazole-6-sulfonamide] |
